Data published in the kinase profiling compilation of Christmann-Franck et al. (2016).

Legend:
Experiment in all cases: KINOMEscan competition binding
Conditions in all cases: compound 10.0 µM
TNK2 (human) = TNK2 (human) (UniProt Q07912)
[1] = test system: MET (human), P08581 [Y1235D]
SGK110 (human) = SGK110 (human) (UniProt P0C264)
RPS6KA5 KD2 (human) = RPS6KA5 KD2 (human) (UniProt O75582)
MAP2K1 (human) = MAP2K1 (human) (UniProt Q02750)
AXL (human) = AXL (human) (UniProt P30530)
CSNK2A2 (human) = CSNK2A2 (human) (UniProt P19784)
FLT4 (human) = FLT4 (human) (UniProt P35916)
CLK1 (human) = CLK1 (human) (UniProt P49759)
[2] = test system: RET (human), P07949 [V804M]
LIMK2 (human) = LIMK2 (human) (UniProt P53671)
MAPK1 (human) = MAPK1 (human) (UniProt P28482)
SRPK1 (human) = SRPK1 (human) (UniProt Q96SB4)
DDR2 (human) = DDR2 (human) (UniProt Q16832)
ROCK2 (human) = ROCK2 (human) (UniProt O75116)
MAPK12 (human) = MAPK12 (human) (UniProt P53778)
RIOK3 (human) = RIOK3 (human) (UniProt O14730)
RET (human) = RET (human) (UniProt P07949)
IRAK1 (human) = IRAK1 (human) (UniProt P51617)
CHUK (human) = CHUK (human) (UniProt O15111)
EPHA8 (human) = EPHA8 (human) (UniProt P29322)
SRC (human) = SRC (human) (UniProt P12931)
PAK1 (human) = PAK1 (human) (UniProt Q13153)
EGFR (human) = EGFR (human) (UniProt P00533)
DYRK1A (human) = DYRK1A (human) (UniProt Q13627)
MST1R (human) = MST1R (human) (UniProt Q04912)
MAP2K3 (human) = MAP2K3 (human) (UniProt P46734)
PIM3 (human) = PIM3 (human) (UniProt Q86V86)
CAMK2D (human) = CAMK2D (human) (UniProt Q13557)
MARK1 (human) = MARK1 (human) (UniProt Q9P0L2)
[3] = target: TYK2 JH2 pseudokinase (human) (UniProt P29597)
MAP2K2 (human) = MAP2K2 (human) (UniProt P36507)
MAP3K9 (human) = MAP3K9 (human) (UniProt P80192)
CSNK2A1 (human) = CSNK2A1 (human) (UniProt P68400)
BRSK1 (human) = BRSK1 (human) (UniProt Q8TDC3)
BRSK1 (human), sequence (Q8TDC3 whole entry, looked up): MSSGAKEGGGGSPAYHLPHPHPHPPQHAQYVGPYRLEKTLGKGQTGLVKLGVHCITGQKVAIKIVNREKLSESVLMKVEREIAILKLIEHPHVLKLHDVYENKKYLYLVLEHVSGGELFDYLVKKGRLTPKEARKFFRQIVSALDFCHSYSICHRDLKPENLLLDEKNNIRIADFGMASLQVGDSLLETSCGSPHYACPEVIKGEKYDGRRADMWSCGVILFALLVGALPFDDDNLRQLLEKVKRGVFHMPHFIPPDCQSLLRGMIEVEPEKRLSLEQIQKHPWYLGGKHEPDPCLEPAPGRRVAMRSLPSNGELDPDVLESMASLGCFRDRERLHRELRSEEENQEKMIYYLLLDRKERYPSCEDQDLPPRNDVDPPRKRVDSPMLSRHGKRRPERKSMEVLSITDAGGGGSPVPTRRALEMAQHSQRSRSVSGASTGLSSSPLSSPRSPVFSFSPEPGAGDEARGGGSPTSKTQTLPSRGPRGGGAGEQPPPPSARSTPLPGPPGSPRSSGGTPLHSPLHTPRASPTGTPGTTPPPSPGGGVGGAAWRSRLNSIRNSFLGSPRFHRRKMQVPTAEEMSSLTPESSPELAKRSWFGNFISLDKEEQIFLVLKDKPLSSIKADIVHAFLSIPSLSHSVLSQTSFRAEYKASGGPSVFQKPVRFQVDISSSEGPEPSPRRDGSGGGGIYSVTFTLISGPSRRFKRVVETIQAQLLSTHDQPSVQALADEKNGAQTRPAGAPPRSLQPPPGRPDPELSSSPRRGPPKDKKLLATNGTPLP

TYK2 JH2 pseudokinase (human), sequence (P29597 whole entry, looked up): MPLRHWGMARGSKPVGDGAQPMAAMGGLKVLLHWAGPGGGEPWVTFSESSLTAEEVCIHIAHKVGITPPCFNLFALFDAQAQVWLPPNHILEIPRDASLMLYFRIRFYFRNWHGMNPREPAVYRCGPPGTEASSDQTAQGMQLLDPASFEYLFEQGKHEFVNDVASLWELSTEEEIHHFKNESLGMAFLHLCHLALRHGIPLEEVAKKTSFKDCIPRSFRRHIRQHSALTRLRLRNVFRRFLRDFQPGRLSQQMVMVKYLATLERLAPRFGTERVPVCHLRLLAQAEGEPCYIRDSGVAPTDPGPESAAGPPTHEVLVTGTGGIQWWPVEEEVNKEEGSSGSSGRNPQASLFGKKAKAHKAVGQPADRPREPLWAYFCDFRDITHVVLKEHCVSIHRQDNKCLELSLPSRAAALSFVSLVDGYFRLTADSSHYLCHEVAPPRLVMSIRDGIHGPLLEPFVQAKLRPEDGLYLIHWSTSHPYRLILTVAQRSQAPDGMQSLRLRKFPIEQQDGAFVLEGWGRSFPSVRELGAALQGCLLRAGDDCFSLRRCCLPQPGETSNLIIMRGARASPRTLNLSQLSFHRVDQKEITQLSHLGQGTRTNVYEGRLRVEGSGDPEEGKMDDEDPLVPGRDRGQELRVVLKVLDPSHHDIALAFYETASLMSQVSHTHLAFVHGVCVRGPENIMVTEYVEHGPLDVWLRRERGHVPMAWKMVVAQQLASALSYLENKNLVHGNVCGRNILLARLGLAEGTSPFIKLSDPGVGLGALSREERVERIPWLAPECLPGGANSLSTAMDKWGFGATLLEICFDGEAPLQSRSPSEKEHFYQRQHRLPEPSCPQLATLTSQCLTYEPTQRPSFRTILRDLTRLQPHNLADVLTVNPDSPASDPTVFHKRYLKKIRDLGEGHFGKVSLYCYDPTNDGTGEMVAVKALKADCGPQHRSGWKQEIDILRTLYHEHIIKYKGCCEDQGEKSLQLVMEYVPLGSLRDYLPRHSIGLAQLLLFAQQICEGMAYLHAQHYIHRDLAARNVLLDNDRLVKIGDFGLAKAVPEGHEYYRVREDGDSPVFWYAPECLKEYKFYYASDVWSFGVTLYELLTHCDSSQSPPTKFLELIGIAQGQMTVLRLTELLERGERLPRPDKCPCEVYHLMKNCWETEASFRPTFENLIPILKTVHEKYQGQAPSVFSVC
RET (human), P07949 [V804M], sequence (P07949 whole entry V804M, looked up): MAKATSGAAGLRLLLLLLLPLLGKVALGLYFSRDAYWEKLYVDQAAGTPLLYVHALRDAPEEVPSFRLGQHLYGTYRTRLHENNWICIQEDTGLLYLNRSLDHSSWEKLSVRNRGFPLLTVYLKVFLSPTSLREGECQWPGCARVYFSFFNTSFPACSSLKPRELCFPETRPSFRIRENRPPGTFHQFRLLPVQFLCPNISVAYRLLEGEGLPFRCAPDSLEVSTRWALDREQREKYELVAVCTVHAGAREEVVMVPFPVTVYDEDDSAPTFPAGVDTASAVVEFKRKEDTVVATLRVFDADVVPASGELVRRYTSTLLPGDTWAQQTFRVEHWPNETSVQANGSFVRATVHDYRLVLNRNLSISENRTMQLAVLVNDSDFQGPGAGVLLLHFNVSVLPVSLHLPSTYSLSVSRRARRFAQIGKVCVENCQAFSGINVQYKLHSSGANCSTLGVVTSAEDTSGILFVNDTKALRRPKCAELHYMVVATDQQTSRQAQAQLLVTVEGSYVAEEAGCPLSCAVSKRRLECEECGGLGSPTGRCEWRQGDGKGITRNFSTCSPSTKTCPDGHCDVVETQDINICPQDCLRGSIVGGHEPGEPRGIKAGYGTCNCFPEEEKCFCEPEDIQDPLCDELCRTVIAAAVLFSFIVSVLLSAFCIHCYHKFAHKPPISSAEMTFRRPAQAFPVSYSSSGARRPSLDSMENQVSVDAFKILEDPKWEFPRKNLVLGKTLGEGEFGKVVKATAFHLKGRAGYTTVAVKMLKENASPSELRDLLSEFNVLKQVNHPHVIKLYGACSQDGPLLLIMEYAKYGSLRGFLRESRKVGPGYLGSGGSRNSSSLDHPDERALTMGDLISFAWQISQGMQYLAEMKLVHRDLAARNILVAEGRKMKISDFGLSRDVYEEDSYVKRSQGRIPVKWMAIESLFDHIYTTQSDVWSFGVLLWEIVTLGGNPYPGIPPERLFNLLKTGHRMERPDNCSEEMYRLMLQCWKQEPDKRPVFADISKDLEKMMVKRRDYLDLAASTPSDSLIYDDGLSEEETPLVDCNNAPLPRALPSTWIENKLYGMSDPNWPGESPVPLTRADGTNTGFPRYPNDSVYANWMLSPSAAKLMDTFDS
FLT4 (human), sequence (P35916 whole entry, looked up): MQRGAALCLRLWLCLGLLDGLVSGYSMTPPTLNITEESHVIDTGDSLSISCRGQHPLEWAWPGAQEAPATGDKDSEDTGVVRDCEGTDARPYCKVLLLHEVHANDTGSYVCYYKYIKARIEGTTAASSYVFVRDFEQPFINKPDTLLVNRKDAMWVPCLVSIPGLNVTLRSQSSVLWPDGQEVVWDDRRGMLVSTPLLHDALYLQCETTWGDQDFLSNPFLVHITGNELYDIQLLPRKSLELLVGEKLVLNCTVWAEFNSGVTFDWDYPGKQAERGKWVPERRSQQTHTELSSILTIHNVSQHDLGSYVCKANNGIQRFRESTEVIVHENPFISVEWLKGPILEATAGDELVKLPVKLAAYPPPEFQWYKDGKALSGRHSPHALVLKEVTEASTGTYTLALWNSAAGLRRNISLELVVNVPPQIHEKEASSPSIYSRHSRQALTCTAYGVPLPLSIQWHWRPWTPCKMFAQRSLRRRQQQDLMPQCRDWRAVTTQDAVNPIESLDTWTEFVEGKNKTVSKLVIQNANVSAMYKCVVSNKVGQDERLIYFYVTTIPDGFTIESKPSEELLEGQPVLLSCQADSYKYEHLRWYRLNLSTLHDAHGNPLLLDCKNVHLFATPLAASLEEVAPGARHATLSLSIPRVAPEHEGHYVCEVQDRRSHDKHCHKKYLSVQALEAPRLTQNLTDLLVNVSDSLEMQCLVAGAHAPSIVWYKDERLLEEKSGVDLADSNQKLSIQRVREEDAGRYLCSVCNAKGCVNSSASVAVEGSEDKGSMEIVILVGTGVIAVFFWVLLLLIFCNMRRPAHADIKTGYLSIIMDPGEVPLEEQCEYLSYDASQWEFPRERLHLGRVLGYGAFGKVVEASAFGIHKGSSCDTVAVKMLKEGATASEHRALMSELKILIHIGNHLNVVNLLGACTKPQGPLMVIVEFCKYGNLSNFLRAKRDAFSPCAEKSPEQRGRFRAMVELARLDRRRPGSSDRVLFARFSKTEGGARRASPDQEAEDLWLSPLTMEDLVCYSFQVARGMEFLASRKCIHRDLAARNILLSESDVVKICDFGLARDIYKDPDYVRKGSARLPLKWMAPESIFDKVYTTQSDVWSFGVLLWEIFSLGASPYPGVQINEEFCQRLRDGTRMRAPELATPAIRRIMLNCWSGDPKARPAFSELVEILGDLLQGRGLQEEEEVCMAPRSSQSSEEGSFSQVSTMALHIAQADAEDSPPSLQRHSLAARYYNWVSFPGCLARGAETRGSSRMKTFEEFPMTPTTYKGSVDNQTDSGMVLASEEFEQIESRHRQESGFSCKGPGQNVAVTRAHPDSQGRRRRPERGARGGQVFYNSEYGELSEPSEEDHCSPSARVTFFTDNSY
CSNK2A1 (human), sequence (P68400 whole entry, looked up): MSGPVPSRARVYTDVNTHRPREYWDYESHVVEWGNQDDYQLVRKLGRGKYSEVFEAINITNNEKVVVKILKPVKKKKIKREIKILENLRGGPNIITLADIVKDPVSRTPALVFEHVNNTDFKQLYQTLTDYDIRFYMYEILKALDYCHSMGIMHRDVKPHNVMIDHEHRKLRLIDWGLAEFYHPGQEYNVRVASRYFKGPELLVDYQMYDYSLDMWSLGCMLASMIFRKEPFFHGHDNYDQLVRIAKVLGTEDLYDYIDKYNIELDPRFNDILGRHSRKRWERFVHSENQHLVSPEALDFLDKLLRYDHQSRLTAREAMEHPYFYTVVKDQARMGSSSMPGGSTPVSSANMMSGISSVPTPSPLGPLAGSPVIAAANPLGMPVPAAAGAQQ
RET (human), sequence (P07949 whole entry, looked up): as the sequence (P07949 whole entry V804M, looked up) above, with M804V counted along it

Row | SMILES | kinase still bound, per cent of control (TNK2 (human)) | kinase still bound, per cent of control [1] | kinase still bound, per cent of control (SGK110 (human)) | kinase still bound, per cent of control (RPS6KA5 KD2 (human)) | kinase still bound, per cent of control (MAP2K1 (human)) | kinase still bound, per cent of control (AXL (human)) | kinase still bound, per cent of control (CSNK2A2 (human)) | kinase still bound, per cent of control (FLT4 (human)) | kinase still bound, per cent of control (CLK1 (human)) | kinase still bound, per cent of control [2] | kinase still bound, per cent of control (LIMK2 (human)) | kinase still bound, per cent of control (MAPK1 (human)) | kinase still bound, per cent of control (SRPK1 (human)) | kinase still bound, per cent of control (DDR2 (human)) | kinase still bound, per cent of control (ROCK2 (human)) | kinase still bound, per cent of control (MAPK12 (human)) | kinase still bound, per cent of control (RIOK3 (human)) | kinase still bound, per cent of control (RET (human)) | kinase still bound, per cent of control (IRAK1 (human)) | kinase still bound, per cent of control (CHUK (human)) | further results
1 | COc1cc(N2CCN(C)CC2)ccc1Nc1ncc2c(n1)N(C)c1ccccc1C(=O)N2C | 3.2% | 100% | 30% | 100% | 100% | 100% | 100% | 100% | 100% | 100% | 100% | 100% | 100% | 100% | 100% | 100% | 100% | 100% | 100% | 100% | kinase still bound, per cent of control (EPHA8 (human)): 100%; kinase still bound, per cent of control (SRC (human)): 100%; kinase still bound, per cent of control (PAK1 (human)): 100%; kinase still bound, per cent of control (EGFR (human)): 100%; kinase still bound, per cent of control (DYRK1A (human)): 100%; kinase still bound, per cent of control (MST1R (human)): 100%; kinase still bound, per cent of control (MAP2K3 (human)): 100%; kinase still bound, per cent of control (PIM3 (human)): 100%; kinase still bound, per cent of control (CAMK2D (human)): 23%; kinase still bound, per cent of control (MARK1 (human)): 100%; kinase still bound, per cent of control [3]: 100%; kinase still bound, per cent of control (MAP2K2 (human)): 100%; kinase still bound, per cent of control (MAP3K9 (human)): 100%; kinase still bound, per cent of control (CSNK2A1 (human)): 100%; kinase still bound, per cent of control (BRSK1 (human)): 100%
2 | CCN(CC)CCCCNc1ncc2c(n1)N(C)C(=O)N(c1c(Cl)c(OC)cc(OC)c1Cl)C2 | 100% | 100% | 100% | 100% | 100% | 100% | 100% | 100% | 100% | 100% | 100% | 100% | 100% | 30% | 100% | 100% | 100% | 100% | 100% | 100% | kinase still bound, per cent of control (EPHA8 (human)): 100%; kinase still bound, per cent of control (SRC (human)): 100%; kinase still bound, per cent of control (PAK1 (human)): 100%; kinase still bound, per cent of control (EGFR (human)): 100%; kinase still bound, per cent of control (DYRK1A (human)): 100%; kinase still bound, per cent of control (MST1R (human)): 100%; kinase still bound, per cent of control (MAP2K3 (human)): 100%; kinase still bound, per cent of control (PIM3 (human)): 100%; kinase still bound, per cent of control (CAMK2D (human)): 100%; kinase still bound, per cent of control (MARK1 (human)): 100%; kinase still bound, per cent of control [3]: 100%; kinase still bound, per cent of control (MAP2K2 (human)): 100%; kinase still bound, per cent of control (MAP3K9 (human)): 100%; kinase still bound, per cent of control (CSNK2A1 (human)): 100%; kinase still bound, per cent of control (BRSK1 (human)): 100%
